Patent US6525001B1, “Substituted pyrimidine and pyridine herbicides” (Mid-American Commercialization Corporation, priority 1997, dated 2003)

Legend:
Format in all cases: in vivo
[1] = tested on: barnyardgrass (Echinochloa crus-galli); assay: Test C; design: key: 0 was no effect; 100 was complete control; settings: PREEMERGENCE
[2] = tested on: cotton (Gossypium hirsutum); assay: Test C; settings: PREEMERGENCE
[3] = tested on: ladysthumb smartweed (Polygonum persicaria); assay: Test C; settings: PREEMERGENCE
[4] = tested on: Spanishneedles (Bidens bipinnata); assay: Test E pre-/postemergence/post directed
Procedure, shortened: (§1)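 Greenhouse pot-grown plants; compound in non-phytotoxic solvent with surfactant applied preemergence to soil within one day of planting, postemergence at two to four leaf stage (three to twenty cm), or post-directed to plant base and soil. Visual injury rated 13 to 21 days after application, 0 (none) to 100 (complete control).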

[5] = tested on: bermudagrass (Cynodon dactylon); assay: Test E pre-/postemergence/post directed
Procedure, shortened: as §1

[6] = tested on: common ragweed (Ambrosia elatior); assay: Test E pre-/postemergence/post directed
Procedure, shortened: as §1

[7] = tested on: itchgrass (Rottboellia exaltata); assay: Test E pre-/postemergence/post directed
Procedure, shortened: as §1

[8] = tested on: johnson grass (Sorghum halepense); assay: Test E pre-/postemergence/post directed
Procedure, shortened: as §1

[9] = tested on: large crabgrass (Digitaria sanguinalis); assay: Test E pre-/postemergence/post directed
Procedure, shortened: as §1

[10] = tested on: pitted morningglory (Ipomoea lacunosa); assay: Test E pre-/postemergence/post directed
Procedure, shortened: as §1

[11] = tested on: sandbur (Cenchrus echinatus); assay: Test E pre-/postemergence/post directed
Procedure, shortened: as §1

[12] = tested on: common groundsel (Senecio vulgaris); assay: Test E pre-/postemergence/post directed; design: key: 0 is no effect; 100 is complete control; settings: PREEMERGENCE
Description: (§2) Seeds, tubers, or plant parts of alexandergrass (Brachiaria plantaginea), annual bluegrass (Poa annua), arrowleaf sida (Sida rhombifolia), barnyardgrass (Echinochloa crus-galli), bermudagrass (Cynodon dactylon), citrus (Citrus sinensis), common chickweed (Stellaria media), common purslane (Portulaca oleracea), common ragweed (Ambrosia elatior), common groundsel (Senecio vulgaris), dallisgrass (Paspalum dilatatum), goosegrass (Eleusine indica), green foxtail (Setaria viridis), guineagrass (Panicum maximum), itchgrass (Rottboellia exaltata), johnson grass (Sorghum halepense), kochia (Kochia scoparia), large crabgrass (Digitaria sanguinalis), leafy spurge (Euphorbia esula), pitted morningglory (Ipomoea lacunosa), purple nutsedge (Cyperus rotundus), quackgrass (Agropyron repens), Russian thistle (Salsola kali), sandbur (Cenchrus echinatus), sourgrass (Trichachne insularis), Spanishneedles (Bidens bipinnata), sugarcane (Saccharum officinarum), surinam grass (Brachiaria decumbens) and tall mallow (Malva sylvestris) were planted into greenhouse pots of flats containing greenhouse planting medium. Plant species were grown grown in separate pots or individual compartments. Preemergence applications were made within one day of planting the seed or plant part. Postemergence applications were applied when the plants were in the two to four leaf stage (three to twenty cm).
(§3) Test chemicals were formulated in a non-phytotoxic solvent mixture which included a surfactant and applied preemergence to the soil surface, postemergence to the plants or as a post directed spray to plants and soil at the base of the target species. Untreated control plants and treated plants were placed in the greenhouse and visually evaluated for injury 13 to 21 days after herbicide application. Plant response ratings, summarized in Table E, are based on a 0 to 100 scale where 0 is no injury and 100 is complete control. A dash (−) response means no test result.

[13] = tested on: common purslane (Portulaca oleracea); assay: Test E pre-/postemergence/post directed; design: key: 0 is no effect; 100 is complete control
Description: as §2, §3

[14] = tested on: common ragweed (Ambrosia elatior); assay: Test E pre-/postemergence/post directed; design: key: 0 is no effect; 100 is complete control; settings: PREEMERGENCE
Description: as §2, §3

[15] = tested on: dallisgrass (Paspalum dilatatum); assay: Test E pre-/postemergence/post directed; design: key: 0 is no effect; 100 is complete control
Description: as §2, §3

[16] = tested on: guineagrass (Panicum maximum); assay: Test E pre-/postemergence/post directed; design: key: 0 is no effect; 100 is complete control
Description: as §2, §3

[17] = tested on: large crabgrass (Digitaria sanguinalis); assay: Test E pre-/postemergence/post directed; design: key: 0 is no effect; 100 is complete control; settings: PREEMERGENCE
Description: as §2, §3

[18] = tested on: sourgrass (Trichachne insularis); assay: Test E pre-/postemergence/post directed; design: key: 0 is no effect; 100 is complete control
Description: as §2, §3

[19] = tested on: tall mallow (Malva sylvestris); assay: Test E pre-/postemergence/post directed; design: key: 0 is no effect; 100 is complete control; settings: PREEMERGENCE
Description: as §2, §3

COc1cnc(-c2ccc(C(F)(F)F)cc2)nc1Cc1cccc(C(F)(F)F)c1 [Compound 23]
Plant response rating, Barnyardgrass ([1]; Rate 35 g/ha): 0 | Plant response rating, Barnyardgrass ([1]; Rate 70 g/ha): 5 | Plant response rating, Barnyardgrass ([1]; Rate 140 g/ha): 10 | Plant response rating, Cotton ([2]; Rate 35 g/ha): 5 | Plant response rating, Cotton ([2]; Rate 70 g/ha): 75 | Plant response rating, Cotton ([2]; Rate 140 g/ha): 75 | Plant response rating, Ladysthumb ([3]; Rate 35 g/ha): 5 | Plant response rating, Ladysthumb ([3]; Rate 70 g/ha): 80 | Plant response rating, Ladysthumb ([3]; Rate 140 g/ha): 80 | Plant response rating, Spanishneedles ([4]; POSTEMERGENCE, Rate 250 g/ha): 10 | Plant response rating, Spanishneedles ([4]; PREEMERGENCE, Rate 32 g/ha): 60 | Plant response rating, Spanishneedles ([4]; PREEMERGENCE, Rate 64 g/ha): 70 | Plant response rating, Bermudagrass ([5]; POSTEMERGENCE, Rate 250 g/ha): 10 | Plant response rating, Bermudagrass ([5]; PREEMERGENCE, Rate 32 g/ha): 90 | Plant response rating, Bermudagrass ([5]; PREEMERGENCE, Rate 64 g/ha): 98 | Plant response rating, Bermudagrass ([5]; PREEMERGENCE, Rate 125 g/ha): 98 | Plant response rating, Bermudagrass ([5]; PREEMERGENCE, Rate 250 g/ha): 98 | Plant response rating, Com. ragweed ([6]; POSTEMERGENCE, Rate 250 g/ha): 40 | Plant response rating, Com. ragweed ([6]; PREEMERGENCE, Rate 32 g/ha): 50 | Plant response rating, Com. ragweed ([6]; PREEMERGENCE, Rate 64 g/ha): 70 | Plant response rating, Itchgrass ([7]; POSTEMERGENCE, Rate 250 g/ha): 80 | Plant response rating, Itchgrass ([7]; PREEMERGENCE, Rate 32 g/ha): 30 | Plant response rating, Itchgrass ([7]; PREEMERGENCE, Rate 64 g/ha): 60 | Plant response rating, Itchgrass ([7]; PREEMERGENCE, Rate 125 g/ha): 70 | Plant response rating, Itchgrass ([7]; PREEMERGENCE, Rate 250 g/ha): 70 | Plant response rating, Johnsongrass ([8]; POSTEMERGENCE, Rate 250 g/ha): 65 | Plant response rating, Johnsongrass ([8]; PREEMERGENCE, Rate 32 g/ha): 70 | Plant response rating, Johnsongrass ([8]; PREEMERGENCE, Rate 64 g/ha): 80 | Plant response rating, Johnsongrass ([8]; PREEMERGENCE, Rate 125 g/ha): 80 | Plant response rating, Johnsongrass ([8]; PREEMERGENCE, Rate 250 g/ha): 90 | Plant response rating, Large crabgrass ([9]; POSTEMERGENCE, Rate 250 g/ha): 40 | Plant response rating, Large crabgrass ([9]; PREEMERGENCE, Rate 32 g/ha): 98 | Plant response rating, Large crabgrass ([9]; PREEMERGENCE, Rate 64 g/ha): 98 | Plant response rating, P. morninglory ([10]; POSTEMERGENCE, Rate 250 g/ha): 40 | Plant response rating, P. morninglory ([10]; PREEMERGENCE, Rate 125 g/ha): 50 | Plant response rating, P. morninglory ([10]; PREEMERGENCE, Rate 250 g/ha): 80 | Plant response rating, Sandbur ([11]; POSTEMERGENCE, Rate 250 g/ha): 20 | Plant response rating, Sandbur ([11]; PREEMERGENCE, Rate 32 g/ha): 85 | Plant response rating, Sandbur ([11]; PREEMERGENCE, Rate 64 g/ha): 80 | Plant response rating, Sandbur ([11]; PREEMERGENCE, Rate 125 g/ha): 80 | Plant response rating, Sandbur ([11]; PREEMERGENCE, Rate 250 g/ha): 98 | Plant response rating, Com. groundsel ([12]; Rate 32 g/ha): 100 | Plant response rating, Com. groundsel ([12]; Rate 64 g/ha): 100 | Plant response rating, Com. groundsel ([12]; Rate 125 g/ha): 100 | Plant response rating, Com. groundsel ([12]; Rate 250 g/ha): 100 | Plant response rating, Com. purslane ([13]; POSTEMERGENCE, Rate 250 g/ha): 50 | Plant response rating, Com. purslane ([13]; PREEMERGENCE, Rate 32 g/ha): 100 | Plant response rating, Com. purslane ([13]; PREEMERGENCE, Rate 64 g/ha): 100 | Plant response rating, Com. purslane ([13]; PREEMERGENCE, Rate 125 g/ha): 100 | Plant response rating, Com. purslane ([13]; PREEMERGENCE, Rate 250 g/ha): 100 | Plant response rating, Com. ragweed ([14]; Rate 125 g/ha): 100 | Plant response rating, Com. ragweed ([14]; Rate 250 g/ha): 100 | Plant response rating, Dallisgrass ([15]; POSTEMERGENCE, Rate 250 g/ha): 40 | Plant response rating, Dallisgrass ([15]; PREEMERGENCE, Rate 32 g/ha): 80 | Plant response rating, Dallisgrass ([15]; PREEMERGENCE, Rate 64 g/ha): 85 | Plant response rating, Dallisgrass ([15]; PREEMERGENCE, Rate 125 g/ha): 90 | Plant response rating, Dallisgrass ([15]; PREEMERGENCE, Rate 250 g/ha): 100 | Plant response rating, Guineagrass ([16]; POSTEMERGENCE, Rate 250 g/ha): 75 | Plant response rating, Guineagrass ([16]; PREEMERGENCE, Rate 32 g/ha): 80 | Plant response rating, Guineagrass ([16]; PREEMERGENCE, Rate 64 g/ha): 98 | Plant response rating, Guineagrass ([16]; PREEMERGENCE, Rate 125 g/ha): 98 | Plant response rating, Guineagrass ([16]; PREEMERGENCE, Rate 250 g/ha): 100 | Plant response rating, Large crabgrass ([17]; Rate 125 g/ha): 100 | Plant response rating, Large crabgrass ([17]; Rate 250 g/ha): 100 | Plant response rating, Sourgrass ([18]; POSTEMERGENCE, Rate 250 g/ha): 30 | Plant response rating, Sourgrass ([18]; PREEMERGENCE, Rate 32 g/ha): 98 | Plant response rating, Sourgrass ([18]; PREEMERGENCE, Rate 64 g/ha): 98 | Plant response rating, Sourgrass ([18]; PREEMERGENCE, Rate 125 g/ha): 100 | Plant response rating, Sourgrass ([18]; PREEMERGENCE, Rate 250 g/ha): 100 | Plant response rating, Tall Mallow ([19]; Rate 32 g/ha): 80 | Plant response rating, Tall Mallow ([19]; Rate 64 g/ha): 85 | Plant response rating, Tall Mallow ([19]; Rate 125 g/ha): 85 | Plant response rating, Tall Mallow ([19]; Rate 250 g/ha): 90
